From patent US8778973B2, “Alkene oxindole derivatives” (Hoffmann-La Roche Inc., priority 2009, dated 2014)
pEC50: −log10 of the molar value.

Each compound was assayed on Recombinant human AMPK proteins (α1β1γ1, α2β1γ1, α1(1-335), α1(1-394) or α2(1-394)) (assay: Scintillation Proximity Assay (SPA) of AMPK activation). Conditions: activator concentration for 50% of maximal enzyme activity; 50 nM recombinant AMPK, 2 μM ATP, 30° C., 2 hr.
Type: biochemical
Procedure, shortened: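 Recombinant human AMPK (α1β1γ1, α2β1γ1 or α-subunit truncations), fully pre-phosphorylated, was used at 50 nM with 2 μM biotin-SAMS, 2 μM ATP plus [γ-^33P]ATP in Tris-HCl pH 7.5, MgCl2, DTT, 2 hr at 30° C. Product was captured on streptavidin SPA beads. EC50 was the activator concentration giving 50% of maximal activity.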

Row | SMILES | pEC50
1 | CC(C)/C(=C1\C(=O)N(Cc2cccc(C(=O)O)c2)c2ccccc21)c1ccc(C(F)(F)F)cc1 [Example 105, 3-{3-[2-Methyl-1-(4-trifluoromethyl-phenyl)-prop-(E)-ylidene]-2-oxo-2,3-dihydro-indol-1-ylmethyl}-benzoic acid] | 5.53
2 | CC(C)/C(=C1\C(=O)N(Cc2cccc(C(=O)O)c2)c2ccccc21)c1ccsc1 [Example 106, 3-{3-[2-Methyl-1-thiophen-3-yl-prop-(E)-ylidene]-2-oxo-2,3-dihydro-indol-1-ylmethyl}-benzoic acid] | 5.79
3 | CC(C)/C(=C1\C(=O)N(Cc2cccc(C(=O)O)c2)c2ccc(Cl)cc21)c1ccc(C(F)(F)F)cc1 [Example 107, 3-{5-Chloro-3-[2-methyl-1-(4-trifluoromethyl-phenyl)-prop-(E)-ylidene]-2-oxo-2,3-dihydro-indol-1-ylmethyl}-benzoic acid] | 6.18

The remaining compounds from weak to strong by pEC50, led by results:

Row | pEC50 | SMILES
4 | 4.97 | COC(=O)c1cccc(CN2C(=O)/C(=C(/c3ccc(Cl)cc3)C3CCCCC3)c3ccccc32)c1 [Example 87, 3-{3-[1-(4-Chloro-phenyl)-1-cyclohexyl-meth-(E)-ylidene]-2-oxo-2,3-dihydro-indol-1-ylmethyl}-benzoic acid methyl ester]
5 | 5.33 | O=C(O)c1cccc(CN2C(=O)/C(=C(/c3ccc(Cl)cc3)C3CCCCC3)c3ccccc32)c1 [Example 104, 3-{3-[1-(4-Chloro-phenyl)-1-cyclohexyl-meth-(E)-ylidene]-2-oxo-2,3-dihydro-indol-1-ylmethyl}-benzoic acid]
6 | 5.49 | CC(=O)c1ccc(/C(=C2/C(=O)N(Cc3cccc(C(=O)O)c3)c3ccccc32)C(C)C)cc1 [Example 108, 3-{3-[1-(4-Acetyl-phenyl)-2-methyl-prop-(E)-ylidene]-2-oxo-2,3-dihydro-indol-1-ylmethyl}-benzoic acid]
7 | 5.59 | COC(=O)c1cccc(CN2C(=O)/C(=C(/c3ccc(C(F)(F)F)cc3)C(C)C)c3ccccc32)c1 [Example 88, 3-{3-[2-Methyl-1-(4-trifluoromethyl-phenyl)-prop-(E)-ylidene]-2-oxo-2,3-dihydro-indol-1-ylmethyl}-benzoic acid methyl ester]
